Source: PubChem BioAssay (NCI)
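The compound was tested at five concentrations on cells cultured in 96-well plates, with a 48-hour exposure period. Here, GI50 denotes the concentration required for 50% inhibition of growth. TGI is the concentration that stops growth completely.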

Columns and labels:
Assay in all cases: DTP human tumour cell line panel, 48 h
786-0 renal = test system: 786-0 renal
A498 renal = test system: A498 renal
A549 NSCLC = test system: A549 NSCLC
ACHN renal = test system: ACHN renal
BT-549 breast = test system: BT-549 breast
CAKI-1 renal = test system: CAKI-1 renal
CCRF-CEM leukemia = test system: CCRF-CEM leukemia
COLO 205 colon = test system: COLO 205 colon
DU-145 prostate = test system: DU-145 prostate
EKVX NSCLC = test system: EKVX NSCLC
HCC-2998 colon = test system: HCC-2998 colon
HCT-116 colon = test system: HCT-116 colon
HCT-15 colon = test system: HCT-15 colon
HL-60(TB) leukemia = test system: HL-60(TB) leukemia
HOP-62 NSCLC = test system: HOP-62 NSCLC
HOP-92 NSCLC = test system: HOP-92 NSCLC
HS 578T breast = test system: HS 578T breast
HT29 colon = test system: HT29 colon
IGROV1 ovarian = test system: IGROV1 ovarian
K-562 leukemia = test system: K-562 leukemia
KM12 colon = test system: KM12 colon
LOX IMVI melanoma = test system: LOX IMVI melanoma
M14 melanoma = test system: M14 melanoma
MCF7 breast = test system: MCF7 breast
MDA-MB-231 breast = test system: MDA-MB-231 breast
MDA-MB-435 = test system: MDA-MB-435
MOLT-4 leukemia = test system: MOLT-4 leukemia
NCI-H226 lung = test system: NCI-H226 lung
NCI-H23 lung = test system: NCI-H23 lung
NCI-H460 lung = test system: NCI-H460 lung
NCI-H522 lung = test system: NCI-H522 lung
NCI/ADR-RES ovarian = test system: NCI/ADR-RES ovarian
OVCAR-3 ovarian = test system: OVCAR-3 ovarian
OVCAR-4 ovarian = test system: OVCAR-4 ovarian
OVCAR-5 ovarian = test system: OVCAR-5 ovarian
OVCAR-8 ovarian = test system: OVCAR-8 ovarian
PC-3 prostate = test system: PC-3 prostate
RPMI-8226 leukemia = test system: RPMI-8226 leukemia
RXF 393 renal = test system: RXF 393 renal
SF-268 CNS = test system: SF-268 CNS
SF-539 CNS = test system: SF-539 CNS
SK-MEL-2 melanoma = test system: SK-MEL-2 melanoma
SK-MEL-28 melanoma = test system: SK-MEL-28 melanoma
SK-MEL-5 melanoma = test system: SK-MEL-5 melanoma
SK-OV-3 ovarian = test system: SK-OV-3 ovarian
SN12C renal = test system: SN12C renal
SNB-19 CNS = test system: SNB-19 CNS
SNB-75 CNS = test system: SNB-75 CNS
SR leukemia = test system: SR leukemia
SW-620 colon = test system: SW-620 colon
T-47D breast = test system: T-47D breast
TK-10 renal = test system: TK-10 renal
U251 CNS = test system: U251 CNS
UACC-257 melanoma = test system: UACC-257 melanoma
UACC-62 melanoma = test system: UACC-62 melanoma
UO-31 renal = test system: UO-31 renal
MALME-3M melanoma = test system: MALME-3M melanoma
SF-295 CNS = test system: SF-295 CNS

## COc1ccc(C2CC(c3cc(OC)c(OC)c(OC)c3)=NO2)cc1OCCCCOc1cc2c(cc1OC)C(=O)N1CCC[C@H]1C=N2 (some centres undefined)
786-0 renal
  GI50: 1570 nM
  TGI: 2990 nM
A498 renal
  GI50: 1720 nM
  TGI: 3.22 µM
A549 NSCLC
  GI50: 2330 nM
  TGI: 5.68 µM
ACHN renal
  GI50: 2410 nM
  TGI: 5.71 µM
BT-549 breast
  GI50: 1230 nM
  TGI: 3.54 µM
CAKI-1 renal
  GI50: 3.09 µM
  TGI: > 100 µM
CCRF-CEM leukemia
  GI50: 1410 nM
  TGI: 4.27 µM
COLO 205 colon
  GI50: 1960 nM
  TGI: 4.04 µM
DU-145 prostate
  GI50: 2480 nM
  TGI: 7.43 µM
EKVX NSCLC
  GI50: 3.68 µM
  TGI: 25 µM
HCC-2998 colon
  GI50: 1580 nM
  TGI: 3.04 µM
HCT-116 colon
  GI50: 1700 nM
  TGI: 3.89 µM
HCT-15 colon
  GI50: 2270 nM
  TGI: 5.54 µM
HL-60(TB) leukemia
  GI50: 1900 nM
  TGI: 4.54 µM
HOP-62 NSCLC
  GI50: 1680 nM
  TGI: 3.43 µM
HOP-92 NSCLC
  GI50: 2470 nM
  TGI: 10.3 µM
HS 578T breast
  GI50: 1100 nM
  TGI: 3.82 µM
HT29 colon
  GI50: 2750 nM
  TGI: 8.38 µM
IGROV1 ovarian
  GI50: 1570 nM
  TGI: 3.06 µM
K-562 leukemia
  GI50: 1260 nM
  TGI: 6.74 µM
KM12 colon
  GI50: 1740 nM
  TGI: 3.32 µM
LOX IMVI melanoma
  GI50: 1470 nM
  TGI: 2840 nM
M14 melanoma
  GI50: 1730 nM
  TGI: 3.45 µM
MCF7 breast
  GI50: 1750 nM
  TGI: 12.3 µM
MDA-MB-231 breast
  GI50: 1150 nM
  TGI: 2610 nM
MDA-MB-435
  GI50: 3.54 µM
  TGI: > 100 µM
MOLT-4 leukemia
  GI50: 1850 nM
  TGI: 4.61 µM
NCI-H226 lung
  GI50: 1670 nM
  TGI: 3.44 µM
NCI-H23 lung
  GI50: 1830 nM
  TGI: 3.5 µM
NCI-H460 lung
  GI50: 1850 nM
  TGI: 4 µM
NCI-H522 lung
  GI50: 610 nM
  TGI: 2280 nM
NCI/ADR-RES ovarian
  GI50: 6.95 µM
  TGI: 37.5 µM
OVCAR-3 ovarian
  GI50: 1940 nM
  TGI: 3.96 µM
OVCAR-4 ovarian
  GI50: 2070 nM
  TGI: 5.04 µM
OVCAR-5 ovarian
  GI50: 3.13 µM
  TGI: 8.34 µM
OVCAR-8 ovarian
  GI50: 2550 nM
  TGI: 7.74 µM
PC-3 prostate
  GI50: 585 nM
  TGI: 3.04 µM
RPMI-8226 leukemia
  GI50: 1430 nM
  TGI: 4.31 µM
RXF 393 renal
  GI50: 1390 nM
  TGI: 2720 nM
SF-268 CNS
  GI50: 1890 nM
  TGI: 4.16 µM
SF-539 CNS
  GI50: 1800 nM
  TGI: 3.46 µM
SK-MEL-2 melanoma
  GI50: 2030 nM
  TGI: 4.8 µM
SK-MEL-28 melanoma
  GI50: 2070 nM
  TGI: 4.1 µM
SK-MEL-5 melanoma
  GI50: 1470 nM
  TGI: 2790 nM
SK-OV-3 ovarian
  GI50: 3.37 µM
  TGI: 9.46 µM
SN12C renal
  GI50: 1580 nM
  TGI: 3.31 µM
SNB-19 CNS
  GI50: 1960 nM
  TGI: 4.97 µM
SNB-75 CNS
  GI50: 1710 nM
  TGI: 3.29 µM
SR leukemia
  GI50: 1120 nM
  TGI: 3.26 µM
SW-620 colon
  GI50: 1550 nM
  TGI: 3.15 µM
T-47D breast
  GI50: 1310 nM
  TGI: 4.11 µM
TK-10 renal
  GI50: 3.51 µM
  TGI: 9.41 µM
U251 CNS
  GI50: 1730 nM
  TGI: 3.61 µM
UACC-257 melanoma
  GI50: 2330 nM
  TGI: 4.96 µM
UACC-62 melanoma
  GI50: 1520 nM
  TGI: 2850 nM
UO-31 renal
  GI50: 2090 nM
  TGI: 6.26 µM

## CC(=O)N[C@@H](Cc1ccc(OP(=O)(O)O)cc1)C(=O)N[C@H]1CCC(=O)N2CCC[C@@H](C(=O)NCc3ccc(Cl)cc3)N2C1=O
786-0 renal
  GI50: > 25000 nM
  TGI: > 25000 nM
A498 renal
  GI50: > 25000 nM
  TGI: > 25 µM
A549 NSCLC
  GI50: > 25000 nM
  TGI: > 25 µM
ACHN renal
  GI50: > 25000 nM
  TGI: > 25 µM
BT-549 breast
  GI50: > 25000 nM
  TGI: > 25 µM
CAKI-1 renal
  GI50: > 25 µM
  TGI: > 25 µM
CCRF-CEM leukemia
  GI50: > 25000 nM
  TGI: > 25 µM
COLO 205 colon
  GI50: > 25000 nM
  TGI: > 25 µM
DU-145 prostate
  GI50: > 25000 nM
  TGI: > 25 µM
HCC-2998 colon
  GI50: > 25000 nM
  TGI: > 25 µM
HCT-116 colon
  GI50: > 25000 nM
  TGI: > 25 µM
HCT-15 colon
  GI50: > 25000 nM
  TGI: > 25 µM
HL-60(TB) leukemia
  GI50: > 25000 nM
  TGI: > 25 µM
HOP-62 NSCLC
  GI50: > 25000 nM
  TGI: > 25 µM
HS 578T breast
  GI50: > 25000 nM
  TGI: > 25 µM
HT29 colon
  GI50: > 25000 nM
  TGI: > 25 µM
IGROV1 ovarian
  GI50: > 25000 nM
  TGI: > 25 µM
K-562 leukemia
  GI50: > 25000 nM
  TGI: > 25 µM
KM12 colon
  GI50: > 25000 nM
  TGI: > 25 µM
LOX IMVI melanoma
  GI50: > 25000 nM
  TGI: > 25000 nM
M14 melanoma
  GI50: > 25000 nM
  TGI: > 25 µM
MALME-3M melanoma
  GI50: > 25 µM
  TGI: > 25 µM
MCF7 breast
  GI50: > 25000 nM
  TGI: > 25 µM
MDA-MB-231 breast
  GI50: > 25000 nM
  TGI: > 25000 nM
MDA-MB-435
  GI50: > 25 µM
  TGI: > 25 µM
MOLT-4 leukemia
  GI50: > 25000 nM
  TGI: > 25 µM
NCI-H226 lung
  GI50: > 25000 nM
  TGI: > 25 µM
NCI-H23 lung
  GI50: > 25000 nM
  TGI: > 25 µM
NCI-H460 lung
  GI50: > 25000 nM
  TGI: > 25 µM
NCI-H522 lung
  GI50: > 25000 nM
  TGI: > 25000 nM
NCI/ADR-RES ovarian
  GI50: > 25 µM
  TGI: > 25 µM
OVCAR-3 ovarian
  GI50: > 25000 nM
  TGI: > 25 µM
OVCAR-4 ovarian
  GI50: > 25000 nM
  TGI: > 25 µM
OVCAR-5 ovarian
  GI50: > 25 µM
  TGI: > 25 µM
OVCAR-8 ovarian
  GI50: > 25000 nM
  TGI: > 25 µM
PC-3 prostate
  GI50: > 25000 nM
  TGI: > 25 µM
RPMI-8226 leukemia
  GI50: > 25000 nM
  TGI: > 25 µM
RXF 393 renal
  GI50: > 25000 nM
  TGI: > 25000 nM
SF-268 CNS
  GI50: > 25000 nM
  TGI: > 25 µM
SF-295 CNS
  GI50: > 25 µM
  TGI: > 25 µM
SF-539 CNS
  GI50: > 25000 nM
  TGI: > 25 µM
SK-MEL-2 melanoma
  GI50: > 25000 nM
  TGI: > 25 µM
SK-MEL-28 melanoma
  GI50: > 25000 nM
  TGI: > 25 µM
SK-MEL-5 melanoma
  GI50: > 25000 nM
  TGI: > 25000 nM
SK-OV-3 ovarian
  GI50: > 25 µM
  TGI: > 25 µM
SN12C renal
  GI50: > 25000 nM
  TGI: > 25 µM
SNB-19 CNS
  GI50: > 25000 nM
  TGI: > 25 µM
SNB-75 CNS
  GI50: > 25000 nM
  TGI: > 25 µM
SR leukemia
  GI50: > 25000 nM
  TGI: > 25 µM
SW-620 colon
  GI50: > 25000 nM
  TGI: > 25 µM
T-47D breast
  GI50: > 25000 nM
  TGI: > 25 µM
TK-10 renal
  GI50: > 25 µM
  TGI: > 25 µM
U251 CNS
  GI50: > 25000 nM
  TGI: > 25 µM
UACC-257 melanoma
  GI50: > 25000 nM
  TGI: > 25 µM
UACC-62 melanoma
  GI50: > 25000 nM
  TGI: > 25000 nM
UO-31 renal
  GI50: > 25000 nM
  TGI: > 25 µM
